The source of these data is patent US12599672B2, “KRAS proteolysis targeting chimeras” (PAQ Therapeutics Inc., priority 2023, dated 2026).

Bounds are passed on as bounds.

Assay [1] has as its target T1, KRAS G12D (Homo sapiens, UniProt P01116, G12D).
T1 construct: AsPc-1-KRAS (G12D)-HiBit-KI cell (Pharmaron); host or cells: AsPc-1-KRAS (G12D)-HiBit-KI cells (HiBiT knock-in at the endogenous KRAS locus)
The assay is described as follows: KRAS G12D HiBit assay. The settings on record: AsPc-1-KRAS (G12D)-HiBit-KI cell, compound treatment for 24 hours; for DC50: absolute DC50. The format is cell-based. As to the method: Day 1. […] Allowed cells to reach approximately 80% confluence before splitting. Rinsed cultivated cells in T-75 flasks with 5 mL PBS (Solarbio, P1020-500). […] Inactivated trypsin by adding excessive serum containing medium. Harvested the cells from flask into cell culture medium and counted the cell number.
Day 2. Test compounds were dissolved at 0.3 mM in DMSO (Solarbio, D8371) as stock solution. […] Performed 3-fold, 10-points dilution via transferring 15 μL compound into 30 μL DMSO by using TECAN liquid handler (TECAN, Freedom EVO200).
Day 3. After compound treatment for 24 hours, removed the plate from incubators and equilibrated at room temperature for 15 minutes. Prepared the HiBit reagent (Promega, N3040) by mixing 10 mL of Nano-Glo®-HiBiT Lytic Buffer with 200 μL of Nano-Glo®-HiBiT Lytic Substrate and 100 μL of LgBiT Protein. Added 20 μL of HiBit reagent into each well of the cell plate and spun the plates at room temperature at 1,000 RPM for 1 minute.
The inhibition activity was calculated using the following formula:
(§1) [formula] where HC (high control) is obtained from cells treated with 0.1% DMSO only.

In assay [2] the target is T2, KRAS G12V (Homo sapiens, UniProt P01116, G12V).
T2 construct: SW620-KRAS (G12V)-HiBit-KI cell (Pharmaron); host or cells: SW620-KRAS (G12V)-HiBit-KI cells (HiBiT knock-in at the endogenous KRAS locus)
T2 sequence (P01116 1-188 isoform P01116-2 G12V): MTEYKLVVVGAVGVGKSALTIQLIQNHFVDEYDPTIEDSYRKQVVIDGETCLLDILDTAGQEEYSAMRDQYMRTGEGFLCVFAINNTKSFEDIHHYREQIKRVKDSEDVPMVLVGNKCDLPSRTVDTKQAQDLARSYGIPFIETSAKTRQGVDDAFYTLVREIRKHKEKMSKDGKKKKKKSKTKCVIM
The assay can be described thus: KRAS G12V HiBit assay. Format: cell-based. The settings on record: SW620-KRAS (G12V)-HiBit-KI cells, compound treatment for 24 hours, class symbols. As to the method:
Day 1. […] Rinsed cultivated cells in T-75 flasks with 5 mL PBS (Solarbio, P1020-500). […] Inactivated trypsin by adding excessive serum containing medium. Harvested the cells from flask into cell culture medium and counted the cell number.
Day 2. Test compounds were dissolved at 0.3 mM in DMSO (Solarbio, D8371) as stock solution. […] Performed 3-fold, 10-points dilution via transferring 15 μL compound into 30 μL DMSO by using TECAN liquid handler (TECAN, Freedom EVO200). […] After compound treatment for 24 hours, the plate was removed from incubators and equilibrated at room temperature for 15 minutes. Prepare the HiBit reagent (Promega, N3040) by mixing 10 mL of Nano-Glo®-HiBiT Lytic Buffer with 200 μL of Nano-Glo®-HiBiT Lytic Substrate and 100 μL of LgBiT Protein. Added 20 μL of HiBit reagent into each well of the cell plate and spun the plates at room temperature at 1,000 RPM for 1 minute.
The degradation activity was calculated using the following formula:
as §1
Background: With HiBiT, luminescence reflects the tagged protein that the partner subunit can reach.

Setting [3] is: numeric bounds given in place of class symbols.

T1 sequence (P01116 1-188 isoform P01116-2 G12D): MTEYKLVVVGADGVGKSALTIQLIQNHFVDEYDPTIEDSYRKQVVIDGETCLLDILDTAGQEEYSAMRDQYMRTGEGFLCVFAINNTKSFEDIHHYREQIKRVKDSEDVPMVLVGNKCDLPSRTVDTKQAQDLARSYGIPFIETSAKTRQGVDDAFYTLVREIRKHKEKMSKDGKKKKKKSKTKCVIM

For `C#Cc1c(F)ccc2cc(O)cc(-c3ncc4c(N5CCC[C@@](C)(O)C5)nc(OC[C@@]56CCCN5[C@H](COC(=O)N5CCC(CN7CCC(c8ccc9c(c8)n(C8CCC(=O)NC8=O)c(=O)n9C)CC7)CC5)CC6)nc4c3F)c12` (some centres unmarked) [Compound 135], the DC50 in assay [1] (class symbols) was greater than 0.3 µM; in assay [2], greater than 0.1 µM.

As to `C#Cc1c(F)ccc2cccc(-c3ncc4c(N5CCC[C@@](C)(O)C5)nc(OCC5(CN6CCN(CC7CCN(c8cccc9c8n(C)c(=O)n9C8CCC(=O)NC8=O)CC7)CC6)CC5)nc4c3F)c12` (some centres unmarked) [Compound 78], the DC50 is greater than 0.3 µM in assay [1] (class symbols) and greater than 0.1 µM in assay [2].

With `C#Cc1c(F)ccc2cc(O)cc(-c3ncc4c(N5CCC[C@@](C)(O)C5)nc(OCC5(CN6CC7(C6)CN(c6ccc8c(c6)n(C)c(=O)n8C6CCC(=O)NC6=O)C7)CC5)nc4c3F)c12` (some centres unmarked) [Compound 51], the values for the DC50 in assay [1] (class symbols) and in assay [2] were less than 0.1 µM and greater than 0.1 µM, respectively.

In the case of `C[C@H]1CN(CCOCCOCCOCCOc2ccc3c(c2)n(C)c(=O)n3C2CCC(=O)NC2=O)CCCN1c1nccc(-c2noc([C@@]3(C)CCCc4sc(N)c(C#N)c43)n2)n1` (stereo partly drawn) [Compound 200, (4S)-2-amino-4-(3-(2-((2S)-4-(2-(2-(2-(2-((1-(2,6-dioxopiperidin-3-yl)-3-methyl-2-oxo-2,3-dihydro-1H-benzo[d]imidazol-5-yl)oxy)ethoxy)ethoxy)ethoxy)ethyl)-2-methyl-1,4-diazepan-1-yl)pyrimidin-4-yl)-1,2,4-oxadiazol-5-yl)-4-methyl-4,5,6,7-tetrahydrobenzo[b]thiophene-3-carbonitrile], the DC50 in assay [2] was greater than 0.1 µM.

In assay [2], `C[C@H]1CN(CCOCCOCCOc2cccc3c2n(C)c(=O)n3C2CCC(=O)NC2=O)CCCN1c1nccc(-c2noc([C@@]3(C)CCCc4sc(N)c(C#N)c43)n2)n1` (some centres unmarked) [Compound 220] displayed a DC50 greater than 0.1 µM.

As for `CCc1c(F)ccc2cc(O)cc(-c3ncc4c(N5CCC[C@@](C)(O)C5)nc(OC[C@@]56CCCN5[C@H](COC(=O)N5CCC(C#Cc7cccc8c7n(C)c(=O)n8C7CCC(=O)NC7=O)CC5)CC6)nc4c3F)c12` (stereo partly drawn) [Compound 403, ((3S,7aS)-7a-(((7-(8-ethyl-7-fluoro-3-hydroxynaphthalen-1-yl)-8-fluoro-4-((R)-3-hydroxy-3-methylpiperidin-1-yl)pyrido[4,3-d]pyrimidin-2-yl)oxy)methyl)hexahydro-1H-pyrrolizin-3-yl)methyl 4-((1-(2,6-dioxopiperidin-3-yl)-3-methyl-2-oxo-2,3-dihydro-1H-benzo[d]imidazol-4-yl)ethynyl)piperidine-1-carboxylate], the DC50 in assay [1] (setting [3]) and in assay [2] was greater than 0.1 µM each time.

As for `C#Cc1c(F)ccc2cccc(-c3ncc4c(N5CCC[C@@](C)(O)C5)nc(OCC5(CN6CCC(CN7CCC(c8cccc9c8n(C)c(=O)n9C8CCC(=O)NC8=O)CC7)CC6)CC5)nc4c3F)c12` (some centres unmarked) [Compound 60], the results for the DC50 in assay [1] (class symbols) and in assay [2] were less than 0.1 µM and greater than 0.1 µM, respectively.

With `C#Cc1c(F)ccc2cccc(-c3ncc4c(N5CCC[C@@](C)(O)C5)nc(OCC5(CN6CCC(N7CCC(c8cccc9c8n(C)c(=O)n9C8CCC(=O)NC8=O)CC7)CC6)CC5)nc4c3F)c12` (some centres unmarked) [Compound 74], the DC50 in assay [1] (class symbols) is greater than 0.3 µM; in assay [2] it was greater than 0.1 µM.

Turning to `CCc1c(F)ccc2cc(O)cc(-c3ncc4c(N5CCC[C@@](C)(O)C5)cc(OC[C@@]56CCCN5[C@H](COC(=O)N5CCC(CN7CCC(c8ccc9c(c8)n(C)c(=O)n9C8CCC(=O)NC8=O)CC7)CC5)CC6)nc4c3F)c12` (stereo partly drawn) [Compound 492, ((3S,7aS)-7a-(((7-(8-ethyl-7-fluoro-3-hydroxynaphthalen-1-yl)-8-fluoro-4-((R)-3-hydroxy-3-methylpiperidin-1-yl)-1,6-naphthyridin-2-yl)oxy)methyl)hexahydro-1H-pyrrolizin-3-yl)methyl 4-((4-(1-(2,6-dioxopiperidin-3-yl)-3-methyl-2-oxo-2,3-dihydro-1H-benzo[d]imidazol-5-yl)piperidin-1-yl)methyl)piperidine-1-carboxylate], the DC50 in assay [1] (class symbols) is less than 0.1 µM; in assay [2], greater than 0.1 µM.

With `C[C@H]1CN(CCOCCOc2ccc3c(c2)n(C)c(=O)n3C2CCC(=O)NC2=O)CCCN1c1nccc(-c2noc([C@]3(C)CCCc4sc(N)c(C#N)c43)n2)n1` (some centres unmarked) [Compound 216], the DC50 in assay [2] was greater than 0.1 µM.

For `C[C@H]1CN(CCOCCOCCOc2ccc3c(c2)n(C)c(=O)n3C2CCC(=O)NC2=O)CCCN1c1nccc(-c2noc([C@@]3(C)CCCc4sc(N)c(C#N)c43)n2)n1` (stereo partly drawn) [Compound 202, (4S)-2-amino-4-(3-{2-[(2S)-4-{2-[2-(2-{[1-(2,6-dioxopiperidin-3-yl)-3-methyl-2-oxo-1,3-benzodiazol-5-yl]oxy}ethoxy)ethoxy]ethyl}-2-methyl-1,4-diazepan-1-yl]pyrimidin-4-yl}-1,2,4-oxadiazol-5-yl)-4-methyl-6,7-dihydro-5H-1-benzothiophene-3-carbonitrile], in assay [2], the DC50 is greater than 0.1 µM.

In assay [2], `C[C@H]1CN(CCOCCOCCOc2ccc3c(c2)n(C)c(=O)n3C2CCC(=O)NC2=O)CCCN1c1nccc(-c2noc([C@]3(C)CCCc4sc(N)c(C#N)c43)n2)n1` (some centres unmarked) [Compound 217] came in with a DC50 greater than 0.1 µM.

`CCc1c(F)ccc2cc(O)cc(-c3ncc4c(N5CCC[C@@](C)(O)C5)nc(OC[C@@]56CCCN5[C@H](COC(=O)N5CCC7(CC5)CC(N5CCC(c8ccc9c(c8)n(C)c(=O)n9C8CCC(=O)N(C)C8=O)CC5)C7)CC6)nc4c3F)c12` (stereo partly drawn) [Compound 491, ((3S,7aS)-7a-(((7-(8-ethyl-7-fluoro-3-hydroxynaphthalen-1-yl)-8-fluoro-4-((R)-3-hydroxy-3-methylpiperidin-1-yl)pyrido[4,3-d]pyrimidin-2-yl)oxy)methyl)hexahydro-1H-pyrrolizin-3-yl)methyl 2-(4-(3-methyl-1-(1-methyl-2,6-dioxopiperidin-3-yl)-2-oxo-2,3-dihydro-1H-benzo[d]imidazol-5-yl)piperidin-1-yl)-7-azaspiro[3.5]nonane-7-carboxylate]: the DC50 in assay [2] is greater than 0.1 µM.

For the molecule `C#Cc1c(F)ccc2cc(O)cc(-c3ncc4c(N5CCC[C@@](C)(O)C5)nc(OC[C@@]56CCCN5[C@H](COC(=O)N5CCC(N7CCC(c8cccc9c8n(C)c(=O)n9C8CCC(=O)NC8=O)CC7)CC5)CC6)nc4c3F)c12` (some centres unmarked) [Compound 148], the DC50 in assay [2] is greater than 0.1 µM.

In assay [1] (class symbols), `C#Cc1c(F)ccc2cccc(-c3ncc4c(N5CCC[C@@](C)(O)C5)nc(OC[C@@]56CCCN5[C@H](COC(=O)NCCOCCOCCOCCOc5ccc7c(c5)n(C)c(=O)n7C5CCC(=O)NC5=O)CC6)nc4c3F)c12` (stereo partly drawn) [Compound 109, ((3S,7aS)-7a-(((7-(8-ethynyl-7-fluoronaphthalen-1-yl)-8-fluoro-4-((R)-3-hydroxy-3-methylpiperidin-1-yl)pyrido[4,3-d]pyrimidin-2-yl)oxy)methyl)hexahydro-1H-pyrrolizin-3-yl)methyl (2-(2-(2-(2-((1-(2,6-dioxopiperidin-3-yl)-3-methyl-2-oxo-2,3-dihydro-1H-benzo[d]imidazol-5-yl)oxy)ethoxy)ethoxy)ethoxy)ethyl) carbamate] gave a DC50 greater than 0.3 µM and a Dmax of 15 to 50%.

For the molecule `C[C@H]1CN(CCOCCOCCOCCOc2cccc3c2n(C)c(=O)n3C2CCC(=O)NC2=O)CCCN1c1nccc(-c2noc([C@@]3(C)CCCc4sc(N)c(C#N)c43)n2)n1` (some centres unmarked) [Compound 219], the DC50 in assay [2] was greater than 0.1 µM.

`C[C@H]1CN(CCOCCOc2cccc3c2n(C)c(=O)n3C2CCC(=O)NC2=O)CCCN1c1nccc(-c2noc([C@@]3(C)CCCc4sc(N)c(C#N)c43)n2)n1` (some centres unmarked) [Compound 221] returned a DC50 in assay [2] greater than 0.1 µM.

Consider `C#Cc1c(F)ccc2cccc(-c3ncc4c(N5CCC[C@@](C)(O)C5)nc(OCC5(CN6CCN(CCN7CCN(c8ccc9c(c8)n(C)c(=O)n9C8CCC(=O)NC8=O)CC7)CC6)CC5)nc4c3F)c12` (some centres unmarked) [Compound 27], for which the DC50 in assay [1] (class symbols) was greater than 0.3 µM.

In assay [1] (class symbols), `C#Cc1c(F)ccc2cccc(-c3ncc4c(N5CCC[C@@](C)(O)C5)nc(OC[C@@]56CCCN5[C@H](COC(=O)NCCOCCOc5ccc7c(c5)n(C)c(=O)n7C5CCC(=O)NC5=O)CC6)nc4c3F)c12` (some centres unmarked) [Compound 107] displayed a DC50 greater than 0.3 µM and a Dmax of 15 to 50%.

As for `C#Cc1c(F)ccc2cccc(-c3ncc4c(N5CCC[C@@](C)(O)C5)nc(OCC5(CN6CCC7(CC6)CC(N6CCC(c8cccc9c8n(C)c(=O)n9C8CCC(=O)NC8=O)CC6)C7)CC5)nc4c3F)c12` (some centres unmarked) [Compound 44], in assay [1] (setting [3]), the DC50 was greater than 0.1 µM.
